The test system of one data set is rabbits. As to conditions: literature (Crosson); cited from earlier work.
Another data set relates to cynomolgus monkeys. The settings on record: literature (Kaufman et al.); cited from earlier work.
The test system of the next data set is Wistar rats. Nature of the data set: IOP measurements in rats (anesthetized, topical administration to the eye). Format: in vivo. The settings on record: rat, 10 mg/ml, 10 μl. As to the method:
B-1. IOP Measurements in Rats
Wistar rats with a body weight of about 300 g were anesthetized with isoflurane (2-3% in O2:N2O=1:2). The compounds were dissolved/suspended in an aqueous solution of sodium chloride (0.9%) and administered topically to the eye in 10 μl volume at a concentration of 10 mg/ml. IOP was measured with a rebound tonometer (TonoLab) at different time points after application of the compounds. Ocular pressure and effects of hemodynamic parameters can be monitored in this model. N^6-Cyclopentyl-Adenosine (CPA) is a known adenosine A1 agonist having the structure shown below: […]

Another data set relates to Normotensive wistar rats. Description: Blood pressure measurement in telemetric rats (conscious, topical administration to the eye). Type of data set: in vivo. The settings on record: conscious rat, 10 mg/ml. The source says:
B-2. Blood Pressure Measurement in Telemetric Rats
Normotensive wistar rats with a body weight of 300 to 350 g were used for this experimental study. Blood pressure was monitored in freely moving conscious animals by radiotelemetry. Briefly, the telemetric system (DSI Data Science International, MN, USA) is composed on 3 basic elements: implantable transmitters (TA11PA-C40), receivers (RA1010) and a computer-based acquisition software (Dataquest A.R.T 2.1 for Windows). Rats were instrumented with pressure implants for chronic use at least 14 days prior the experiments. Rats were anesthetized with isoflurane (2-3% in O2:N2O=1:2). During catheter implantation under anesthesia, rats were kept on a heating mat. A fluid-filled sensor catheter was inserted upstream into the exposed descending aorta between the iliac bifurcation and the renal arteries. According to the DSI guidelines the tip of the telemetric catheter was located just caudal to the renal arteries and secured by tissue adhesive. The transmitter body was affixed to the inner peritoneal wall before closure of abdomen. In a hardware configuration equipped for 24 animals, each rat cage was positioned on top of an individual receiver platform. After activation of the implanted transmitters, A.R.T., an on-line data acqusition system, samples data and converts telemetric pressure signals into mm Hg. The compounds were dissolved/suspended in an aqueous solution of sodium chloride (0.9%) and administered topically to the eye in 10 μl volume at a concentration of 10 mg/ml. Given are % deviations from the control run-in period of 2 hours before substance administration.

In data set [1] the test system is Female New Zealand rabbits. Nature of the data set: IOP measurements in conscious rabbits. Type of data set: in vivo. The settings on record: conscious rabbit, topical, 30 μl. As to the method: B-5. IOP Measurements in Conscious Rabbits
Female New Zealand rabbits with a body weight of about 4-5 kg were used to measure inner eye pressure (IOP). The compounds were dissolved/suspended in a solution of 10% transcutol, 10% solutol and 80% PBS, and given by topical administration at the eye in 30 μl volume. IOP was measured with a rebound tonometer (TonoVet) at different time points after application of the drugs. INO-8875 is a known adenosine A1 agonist having the structure shown below: […]

The test system of a further data set is New Zealand rabbits. Nature of the data set: Assessment of blood pressure in telemetric rabbits. Format: in vivo. As to conditions: conscious rabbit, topical, 30 μl. As to the method: B-6. Assessment of Blood Pressure and Heart Rate in Telemetric Rabbits Implantation of Telemetric Senders in Female New Zealand Rabbits:
New Zealand rabbits were used for implantation of the telemetric senders. Rabbits were pre-anaesthetized with Rompun® and Ketavet® i.m. at a dose of 5 mg/kg (in 0.25 ml/kg)+40 mg/kg (in 0.40 ml/kg) respectively. Anaesthesia was maintained with an i.v. infusion of Rompun® and Ketavet® (5-15 ml/h) with a solution of Rompun 2 ml (20 mg/1 ml)+Ketavet 4 ml (100 mg/ml) and 60 ml 0.9% aqueous solution of sodium chloride. Before surgery the hairs at the inner side of the back leg were completely removed and the skin were treated with local anaesthetic Xylocaln® Spray and disinfected with Braunol®. The rabbits were transferred to a sterile surgery unit and covered with sterile swabs and compressions. The skin was opened and the arteria femoralis was carefully dissected free and the pressure catheter of the telemetric implant C50 PXT® (DSI/Data Science International, St. Paul, Minn., U.S.A.) was inserted in the […] and forwarded abdominally under control of the pressure signal. The signal was detected with the RMC1-DSI® receiver plates and visualized with the PONEMAH® physiology platform software DSI/Data Science International, St. Paul, Minn., U.S.A.). After detection of a stable blood pressure signal the catheter was fixed with tissue-glue “Gewebepad” (DSI) and the two ECG electrodes were cut close to the transmitter. The transmitter was fixed under the skin of the rabbit. The wound was closed and finally treated with Nebacetin® Powder Spray. Post-operative analgesia was done with Metamizol i.m. 50 mg/kg in 0.1 ml/kg for 5 days after surgery. In addition a 5 day antibiotic therapy with Terramycin®/LA 20 mg/kg with 0.1 ml/kg was applied i.m. All rabbits recovered fully within one week of the surgery and were after 2 weeks adjustment to the measurement procedure used for the blood pressure detection.
Registration of MAP and HR in Conscious Female New Zealand Rabbits:
The rabbits with telemetric implants were housed for 5 hours in a transportation box which was placed on the RMC1-DSI® receiver plates. The signals were visualized, compiled and analyzed with the PONEMAH® physiology platform software. The systolic (SAP), diastolic (DAP) and mean arterial blood pressure (MAP) levels were registered in mmHg and the heart rate (HR) in beat/minutes was calculated from the interval between the systoles. Baseline levels for SAP, DAP and MAP as for HR were registered over a 2 hour equilibration period. The compounds were dissolved/suspended in a solution of 10% transcutol, 10% solutol and 80% PBS, and given by topical administration at the eye in 30 μl volume. Controls received the corresponding solvents. Baseline levels for SAP, DAP and MAP as for HR were registered over a 3 hour period after application.

With `OC[C@H]1O[C@@H](n2cnc3c(NC4CCCCC4)ncnc32)[C@H](O)[C@@H]1O` [CHA, N6-cyclohexyl-adenosine], the “effect on intraocular pressure” value in the data set with rabbits and in the data set on cynomolgus monkeys was “lower intraocular pressure” each time.
On to `OC[C@H]1O[C@@H](n2cnc3c(NC4CCCC4)ncnc32)[C@H](O)[C@@H]1O` [CPA, N^6-Cyclopentyl-Adenosine], for which the “IOP as percent of zero value” with Wistar rats (time 0 min) was determined as 100.0%; in the data set on Wistar rats (time 15 min), 65.0%; in the data set with Wistar rats (time 30 min) it was 58.5%; in the data set on Wistar rats (time 45 min) it was 46.3%; in the data set on Wistar rats (time 60 min), 42.5%; with Wistar rats (time 90 min), 44.8%. Besides, the “IOP as percent of zero value” in the data set on Wistar rats (time 120 min) was determined as 59.0%. The “mean arterial pressure (MAP) as percent change of zero value” with Normotensive wistar rats (time 0.25 h) was −25.4%; with Normotensive wistar rats (time 0.75 h), −71.3%; in the data set with Normotensive wistar rats (time 1.25 h), −58.9%; with Normotensive wistar rats (time 1.75 h) it was −42.6%; in the data set on Normotensive wistar rats (time 2.25 h), −30.3%; with Normotensive wistar rats (time 2.75 h), −17.6%. Moreover, the “mean arterial pressure (MAP) as percent change of zero value” in the data set on Normotensive wistar rats (time 3.25 h) is listed as −16.4%; in the data set with Normotensive wistar rats (time 3.75 h), −9.0%; with Normotensive wistar rats (time 4.25 h), −8.4%; in the data set with Normotensive wistar rats (time 4.75 h) it was −5.3%; in the data set on Normotensive wistar rats (time 5.25 h), −0.7%; in the data set on Normotensive wistar rats (time 5.75 h) it was −2.9%. Moreover, the “mean arterial pressure (MAP) as percent change of zero value” is recorded as −2.7% with Normotensive wistar rats (time 6.25 h) and 0.0% in the data set on Normotensive wistar rats (time −0.25 h).
For the molecule `O=[N+]([O-])OC[C@H]1O[C@@H](n2cnc3c(NC4CCCC4)ncnc32)[C@H](O)[C@@H]1O` [INO-8875], the “IOP as percent of zero value” turned out to be 100.0% in data set [1] (1.0 mg/mL, time 0 min); 85.3% in data set [1] (1.0 mg/mL, time 30 min); 86.7% in data set [1] (1.0 mg/mL, time 60 min); 93.3% in data set [1] (1.0 mg/mL, time 90 min); 100% in data set [1] (1.0 mg/mL, time 120 min); 100.0% in data set [1] (3.0 mg/mL, time 0 min). In addition, the “IOP as percent of zero value” in data set [1] (3.0 mg/mL, time 30 min) was determined as 89.3%; in data set [1] (3.0 mg/mL, time 60 min), 81.3%; in data set [1] (3.0 mg/mL, time 90 min), 79.0%; in data set [1] (3.0 mg/mL, time 120 min) it was 87.3%; in data set [1] (10.0 mg/mL, time 0 min) it was 100.0%; in data set [1] (10.0 mg/mL, time 30 min), 74.0%. The “IOP as percent of zero value” was 60.0% in data set [1] (10.0 mg/mL, time 60 min); 61.3% in data set [1] (10.0 mg/mL, time 90 min); 65.0% in data set [1] (10.0 mg/mL, time 120 min). In addition, the “mean arterial pressure (MAP)” value in the data set on New Zealand rabbits (1.0 mg/mL, time 0 min) is listed as 123.9 mm Hg; with New Zealand rabbits (1.0 mg/mL, time 30 min), 111.3 mm Hg; in the data set on New Zealand rabbits (1.0 mg/mL, time 60 min), 110.9 mm Hg; with New Zealand rabbits (1.0 mg/mL, time 90 min), 112.6 mm Hg; in the data set with New Zealand rabbits (1.0 mg/mL, time 120 min), 106.0 mm Hg; with New Zealand rabbits (3.0 mg/mL, time 0 min), 118.5 mm Hg. Besides, the “mean arterial pressure (MAP)” value in the data set with New Zealand rabbits (3.0 mg/mL, time 30 min) is 101.8 mm Hg; with New Zealand rabbits (3.0 mg/mL, time 60 min), 104.9 mm Hg; in the data set on New Zealand rabbits (3.0 mg/mL, time 90 min) it was 105.7 mm Hg; with New Zealand rabbits (3.0 mg/mL, time 120 min), 109.0 mm Hg; in the data set with New Zealand rabbits (10.0 mg/mL, time 0 min) it was 114.5 mm Hg; in the data set with New Zealand rabbits (10.0 mg/mL, time 30 min) it was 89.5 mm Hg. The “mean arterial pressure (MAP)” value was 86.9 mm Hg in the data set on New Zealand rabbits (10.0 mg/mL, time 60 min); 90.3 mm Hg with New Zealand rabbits (10.0 mg/mL, time 90 min); 90.0 mm Hg in the data set with New Zealand rabbits (10.0 mg/mL, time 120 min).
For the molecule `C[C@H](Cc1ccccc1)Nc1ncnc2c1ncn2[C@@H]1O[C@H](CO)[C@@H](O)[C@H]1O` [R-PIA, R(−)-N6-(2-phenylisopropyl)adenosine], the “effect on intraocular pressure” value in the data set with rabbits and in the data set with cynomolgus monkeys was “lower intraocular pressure” in each case.
